Data reported in patent EP4166651A1, “METHODS AND COMPOSITION TO INCREASE CELLULAR GLUTATHIONE LEVEL” (priority 2021, dated 2023).
Where a SMILES comes first, the peptide text is derived from it. Bridges are numbered along the chain shown (N, C = ends). Roman numbers before positions name the chains, in order.

Assays:
[1] = tested on: human bone marrow stromal cells, mesenchymal stem cells (MSC)
Description: The assay was performed with human bone marrow stromal cells, mesenchymal stem cells (MSC). In a first step, the cells were seeded in a white 96-well cell culture plate and incubated for 24 h in a CO2-Incubator (37°C, 5% CO2, 95% humidity) at a cell density of 5.000 cells/well. After the resting time of 24 hours, diluted samples containing test compounds were added to the plate in equal volumes of 50 µl to reach the desired concentrations of interest and a final volume of 100 µl per well. Samples of L-cysteine were compared to Cys-peptides and each sample was tested in triplicates. The control was rested in medium without sample. […] The viability was determined based on the quantification of the ATP present in the cells per well. Through the luminescence detection of luciferase using a multiplate reader the ATP amount was measured and quantified. Resulting luminescence signal of samples was normalized to the signal of control cells. […] The viability was determined based on the quantification of the ATP present in the cells per well. Through the luminescence detection of luciferase using a multiplate reader the ATP amount was measured and quantified. Resulting luminescence signal of samples was normalized to the signal of control cells.

[2] = tested on: Chinese hamster ovary cells (CHO-K1); experiment: In vitro Glutathione assay (GSH/GSSG-Glo) after H2O2-induced oxidative stress; format: cell-based; conditions: 24 h pre-incubation or constant incubation, 100 µM H2O2 for 20 min, with and without FBS, compared to medium control not treated with H2O2
Description: The addition of Cys-peptides and mixtures of Cys-peptides with L-cysteine and L-cystine to the cell culture medium was evaluated regarding their influence on the intracellular glutathione level. Oxidative stress was simulated by the addition of hydrogen peroxide solution. The assay was performed with Chinese hamster ovary cells (CHO-K1). […] In relation to the oxidative stress conditions the cells were pre-incubated or constantly incubated with Cys-peptide samples. […] The samples (Ala-Cys)2 and (Lys-Cys)2 were dissolved in culture medium, either containing 10% fetal bovine serum (FBS) or medium without FBS, to perform the assay setup in presence and absence of FBS during the stress phase. […] This leads to luminescence signals which were measured in a multiplate reader. To calculate the GSH concentrations, a dilution series of a glutathione standard was performed, and luminescence signals measured. Relative luminescence signals were plotted against GSH concentrations. After subtracting the background signals, GSH concentration in samples was calculated based on the linear standard curve. […] After luminescence signals were measured, the intracellular glutathione concentration of cells incubated with Cys-peptides and mixtures and treated with 100 µM H2O2 were compared to a medium control, which was not treated with H2O2.

[3] = cell culture media relevant pH of about 7; cited from earlier work

Structure (SMILES)	viability of MSCs [1]	intracellular glutathione level [2]	solubility [3]
N[C@@H](CS)C(=O)O [L-Cysteine]	negatively affects viability	increase intracellular glutathione concentration	–
C[C@H](N)C(=O)N[C@@H](CSSC[C@H](NC(=O)[C@H](C)N)C(=O)O)C(=O)O [(Ala-Cys)2, N,N'-di-L-alanyl-L-cystine] (I: H-Ala-Cys-OH / II: H-Ala-Cys-OH; disulfide I:2-II:2)	does not have a negative effect on the viability	–	–
N[C@@H](CSSC[C@H](N)C(=O)O)C(=O)O [cystine, L-cystine]	–	–	around 1 mM
